In patent US20250161309A1, “TOPICAL COMPOSITIONS AND USES THEROF” (TOPADUR PHARMA AG, priority 2022, published 2025):

Legend:
[1] = tested on: C57BL/6 mouse model for chemotherapy-induced alopecia (CIA); assay: Preventive C57BL/6 mouse model of cyclophosphamide (chemotherapy)-induced alopecia (CIA), topical administration; assay type: in vivo; conditions: female mice; for mice with visual melanogenesis in peeled skin: end of study; for Ki-67 mean score (positive cells near the root sheath of hair follicles, semi-quantitative grading): vehicle 0.4; for CD-31 mean score (perifollicular angiogenesis, semi-quantitative grading): vehicle group 0.8
Experimental: Female C57BL/6 mice (Vivo Bio Tech Ltd, Telangana, India) of 6 to 9 weeks of age in stable telogen phase of hair growth cycle were used.
100 μL of a clear solution of respective 0.0004%, 0.002% (w/v) concentrations of Cpd 1 in the corresponding vehicle (PEG-400:EtOH/7:3) (PEG-400: Central Drug House Ltd. Dehli, India; Ethanol: Changshu Hongsheng fine chemicals Co. Ltd. China) and the positive control, 2% solution (w/v) Minoxidil (Chemieliva, China) in the corresponding vehicle (PEG-400:EtOH/7:3) were topically applied to the depilated area on the dorsal back of female mice. The solutions covered a circular area of approximately 4 cm^2. The treatment regimen was twice daily for 7 days before Cyclophosphamide injection and afterwards for 3 weeks.
Animals (female) on day 1 weighted on average 18.8 g+0.2 ranging from 18.5 to 19.3 g. The animals were exposed by gentle clipping of hair from the dorsal back using an electric clipper. The following day, animals with clear skin were depilated using a depilatory cream. To evaluate the preventive potential of Cpd 1 in the chemotherapy-induced alopecia mouse model, animals were treated topically with 0.0004% and 0.002% Cpd 1, 2% Minoxidil and vehicle from day 1 onwards on the dorsal depilated skin with twice daily application regimen until day 10, when all the animals have attained the anagen stage. On day 11 after depilation, no application of the Cpd 1 or vehicle was done. This was considered a wash-out period. On day 12 after depilation, the animals were given intraperitoneal injection of cyclophosphamide (CYP-HiMedia Laboratories, Mumbai, India) at the dose of 150 mg/kg body weight. One day of wash-out period was given to the animals before restarting the treatment with Cpd 1. The treatment regimen was reinitiated with 0.0004% and 0.002% Cpd 1, 2% Minoxidil and vehicle in the respective groups for further 3 weeks. All the animals were observed from day 1 (experiment start) till day 30 (experiment termination and animal sacrifice day) and the hair growth score was recorded on a daily basis. The criteria for scoring of hair growth is as follows: no hair growth, pink skin—score 0; skin colour changes from pink to grey/light grey without visible hair growth—score 0.5; onset of anagen (skin colour changes from grey/light grey to dark grey/black without visible hair growth)—score 1; sparse hair growth—score 1.5; diffuse short hair growth—score 2, moderate hair growth—score 2.5 and dense, normal coat hair—score 3 (Lee B H, Lee J S, Kim Y C. Hair growth-promoting effects of lavender oil in C57BL/6 mice. Toxicol Res. (2016) 32(2):103-108). Photographs of the animals were captured before the initiation and during the course of the study. […]
After completion of the experiments all animals were sacrificed by euthanasia (Choi H I, Kang B M, Jang J, Hwang S T, Kwon O. Novel effect of sildenafil on hair growth. Biochem Biophys Res Commun. (2018) 505(3):685-691). The dorsal skin of each animal was then removed by peeling. The peeled skin was spread and checked visually for the induction of melanogenesis indicated by visual blackening on the reverse side of the skin. The skin samples were evenly spread on a pre-labelled glass slide and kept in 10% formalin until further use. Later, the skin samples were embedded in paraffin and sectioned at 5 microns using a microtome and the corresponding slides per animal were prepared. The slides obtained were used for Haematoxylin & Eosin (H&E) staining and in the transverse and longitudinal sections' photomicrographs data, the total number of follicles in the dermis and the sub cutis were determined for each animal. The skin thickness was measured using Image J 1.44 software. […]

[2] = tested on: battery of 44 targets (SafetyScreen44); assay: Off-target selectivity, (radio)ligand binding and enzymatic assays, SafetyScreen44 (Eurofins Cerep); parameters: species or system human; conditions: 100 nM; all 44 targets of Table 4 (incl. hERG, PDE3A, PDE4D2, COX1, COX2); no significant responses
Experimental: In vitro pharmacological profiling is increasingly being used earlier in the drug discovery process to identify undesirable off-target activity profiles that could hinder or halt the development of candidate drugs or even lead to market withdrawal if discovered after a drug is approved (Bowes N, et. al., Nature Reviews Drug Discovery 11(12):909-22). Thus, the Off-target selectivity of Compound 1 at 100 nM was tested in (radio)ligand binding and enzymatic assays against a battery of 44 targets (SafetyScreen44™, atEurofins Cerep, France).

With `CCCOc1ccc(S(=O)(=O)N2CCC(CCO[N+](=O)[O-])(CCO[N+](=O)[O-])CC2)cc1-c1nc2c(CCC)cn(CC)c2c(=O)[nH]1` [Cpd 1, (1-((3-(5-ethyl-4-oxo-7-propyl-4,5-dihydro-3H-pyrrolo[3,2-d]pyrimidin-2-yl)-4-propoxyphenyl)sulfonyl)piperidine-4,4-diyl)bis(ethane-2,1-diyl) dinitrate] the “number of hair follicles, Cpd 1 compared with 2% Minoxidil-treated groups” value [1] was “No significant differences”, the “signs of alopecia after CYP administration on day 12” value ([1]; 0.0004% (w/v)) was “minor signs of alopecia” and the “mice with visual melanogenesis in peeled skin” value ([1]; 0.0004% (w/v)) was 6/7. The “Ki-67 mean score (positive cells near the root sheath of hair follicles, semi-quantitative grading)” value ([1]; 0.0004% (w/v)) was 1.4, the “CD-31 mean score (perifollicular angiogenesis, semi-quantitative grading)” value ([1]; 0.0004% (w/v)) was 1.4 and the “depth and development of dermal papilla and long hair shaft of hair follicles observed (longitudinal skin sections)” value ([1]; 0.0004% and 0.002%) was “majority of the animals”. For the same compound, the “thickness of the skin compared to vehicle group” value ([1]; 0.0004% and 0.002%) was “slightly increase”, the “skin color change (transition from telogen to anagen phase) compared to Minoxidil-treated group” value ([1]; 0.0004% and 0.002%, before CYP administration, majority of animals, end of first week of application) was “faster” and the “increase in hair growth, 0.002% compared to 0.0004%” value ([1]; 0.002% (w/v)) was “slightly faster increase”. The “signs of alopecia after CYP administration on day 12” value ([1]; 0.002% (w/v)) was “no signs of alopecia”, the “mice with visual melanogenesis in peeled skin” value ([1]; 0.002% (w/v)) was 7/7 and the “Ki-67 mean score (positive cells near the root sheath of hair follicles, semi-quantitative grading)” value ([1]; 0.002% (w/v)) was 1.7. For the same compound, the “CD-31 mean score (perifollicular angiogenesis, semi-quantitative grading)” value ([1]; 0.002% (w/v)) was 1.6, the “adverse effects on body weight” value ([1]; 30-day study, any of the groups) was “no adverse effects” and the “behavioral changes, reaction to treatment or adverse effects in relation to general health” value ([1]; 30-day study, topical twice daily) was “no signs of behavioral changes, reaction to treatment or adverse effects”. The “decrease in the mean hair growth after CYP administration” value ([1]; Compound 1 treated groups) was “no decrease”, the “number of hair follicles in the subcutis layer of the skin and total follicle counts compared to vehicle group (H&E)” value ([1]; Compound 1 treated groups) was “significantly increased” and the “animals with complete hair regrowth (hair growth score of 3)” value ([1]; Cpd 1 groups (0.0004% and 0.002%)) was 7/7. For the same compound, the “increase in hair growth compared to Minoxidil and vehicle group” value ([1]; from day 6/7 onwards) was “faster increase” and the “inhibition or stimulation to any of the targets” value [2] was under 50%.
